Patent EP1790655B1, “Biologically active peptides” (CMS Peptides Patent Holding Company Limited, priority 2001, dated 2003)

What was measured:
L1210 leukemia = test: survival of mice with transplanted L1210 leukemia; assay type: in vivo, DBA/2 mice; conditions: 20mg/kg i.p. once per day from the day after transplanting, Kaplan-meier mean
Text: (§1) Intraperitoneal injection, once per day. […] Treatment of all groups with testing substance lasted for 30 days or until the animal died unless otherwise specified.
The mice were then killed by cervical vertebra dislocation and their ascitic fluid collected aseptically. […] Treatment started in the testing animals as described in section Method 1. Mean survival day was obtained by the Kaplan-meier method in the Survival option of the SPSS software. If the animal survived longer than the experiment, the survival days was entered as the duration of the experiment.

[1] = system: ascitic fluid type liver cancer H22; test: survival of mice with transplanted ascitic fluid type liver cancer H22; assay type: in vivo, BALB/c mice; conditions: 20mg/kg i.p. once per day from the day after transplanting, Kaplan-meier mean
Procedure: Intraperitoneal injection, once per day. […] The cyclophosphamide groups were treated on the next day after transplanting the cancer cells. Treatment of all groups with testing substance lasted for 30 days or until the animal died unless otherwise specified.
Stock H22 cells were incubated in DMEM/F12 medium supplemented with 10% fetal bovine serum, 37°C/5%CO2 for 72 hrs, then washed 3-4 times with Hank's solution at room temperature. Adjust cell concentration to 1-2 x 10^9 per litre with Hank's solution. 0.2ml of the cell suspension was implanted to the abdominal cavity of several BALB/c mice for 6-8 days. The mice were killed by cervical vertebra dislocation. Ascitic fluid of the mice was collected asceptically and the cell concentration adjusted to 1 x 10^6 per ml with Hank's solution. 0.2ml of the cell suspension was implanted into the abdominal cavity of healthy mice to generate the H22 carrying mouse model for ascitic fluid type liver cancer. Administration of test substance started as described in section Method 1. Survival data of the mice was recorded. If the animal survived longer than the experiment, the survival days was recorded as the duration of the experiment. […] The survival index was calculated according to the following formula: Survival index = (mean survival days of treatment group-mean survival days of control group)ömean survival days of control group x 100% [formula]

S180 sarcoma cells = test: growth of transplanted S180 sarcoma in mice; assay type: in vivo, BALB/c mice; conditions: 20mg/kg i.p. once per day from the day after transplanting
Procedure: as §1
The mice were killed by cervical vertebra dislocation. Vigorously growing and non-disrupted tumor masses were harvested and washed clean with sterile saline. The tissue was dispersed in saline to a homogenous cell suspension, in a ratio of 1 g tissue to 4 ml saline. […] Administration of test substance treatment started as described in section Method 1.
After the phagocytosis index study, the mice were killed by cervical vertebra dislocation. The liver, spleen, and cancer tissue were dissected, blotted dry, and weighed.

[2] = system: Masugi nephritis rat model; test: Masugi nephritis rat model; assay type: in vivo, Sprague Dawley (SD) rats; conditions: peptides 50µg/kg/day
Text: The anti-serum was then exuded and isolated.
Whole blood was collected from 15 healthy SD rats.
3. […] Treatment started on the day of induction.
4. […] Adequate drinking water was supplied.

| SMILES | Survival days (L1210 leukemia) [days] | Survival days [1] [days] | Tumor weight (S180 sarcoma cells) [g] | spleen index (mean spleen weight / mean body weight) ([2]; after three weeks of treatment, hydrocortisone 3.3mg/kg/day (halved after first week) i.p.) | growth rate ([2]; nephritis rats, hydrocortisone 3.3mg/kg/day i.p.) |
| --- | --- | --- | --- | --- | --- |
| O=P1(N(CCCl)CCCl)NCCCO1 (centres unmarked) [Cyclo-phos phamide, Cyclophosphamide] | 24.0 ± 5.3 | 24.7 ± 10.2 | 0.68 ± 0.32 | – | – |
| C[C@]12CCC(=O)C=C1CC[C@@H]1[C@@H]2[C@@H](O)C[C@@]2(C)[C@H]1CC[C@]2(O)C(=O)CO [hydrocortisone, Hydrocortisone] | – | – | – | 4.5±1.4 x10-3 | slower growth rate than normal |
